Results reported in ChEMBL document CHEMBL1146729, “Rational design and synthesis of novel heparan sulfate mimetic compounds as antiadhesive agents” (Bioorg Med Chem Lett, 2004).

Tests used:
Collagenase ColA = molecular target: T1, Collagenase ColA (Bacteria, UniProt P43153); test: Inhibition of collagenase at 100 uM (No inhibition); parameters: species or system Hathewaya histolytica
T1 sequence (P43153 whole entry): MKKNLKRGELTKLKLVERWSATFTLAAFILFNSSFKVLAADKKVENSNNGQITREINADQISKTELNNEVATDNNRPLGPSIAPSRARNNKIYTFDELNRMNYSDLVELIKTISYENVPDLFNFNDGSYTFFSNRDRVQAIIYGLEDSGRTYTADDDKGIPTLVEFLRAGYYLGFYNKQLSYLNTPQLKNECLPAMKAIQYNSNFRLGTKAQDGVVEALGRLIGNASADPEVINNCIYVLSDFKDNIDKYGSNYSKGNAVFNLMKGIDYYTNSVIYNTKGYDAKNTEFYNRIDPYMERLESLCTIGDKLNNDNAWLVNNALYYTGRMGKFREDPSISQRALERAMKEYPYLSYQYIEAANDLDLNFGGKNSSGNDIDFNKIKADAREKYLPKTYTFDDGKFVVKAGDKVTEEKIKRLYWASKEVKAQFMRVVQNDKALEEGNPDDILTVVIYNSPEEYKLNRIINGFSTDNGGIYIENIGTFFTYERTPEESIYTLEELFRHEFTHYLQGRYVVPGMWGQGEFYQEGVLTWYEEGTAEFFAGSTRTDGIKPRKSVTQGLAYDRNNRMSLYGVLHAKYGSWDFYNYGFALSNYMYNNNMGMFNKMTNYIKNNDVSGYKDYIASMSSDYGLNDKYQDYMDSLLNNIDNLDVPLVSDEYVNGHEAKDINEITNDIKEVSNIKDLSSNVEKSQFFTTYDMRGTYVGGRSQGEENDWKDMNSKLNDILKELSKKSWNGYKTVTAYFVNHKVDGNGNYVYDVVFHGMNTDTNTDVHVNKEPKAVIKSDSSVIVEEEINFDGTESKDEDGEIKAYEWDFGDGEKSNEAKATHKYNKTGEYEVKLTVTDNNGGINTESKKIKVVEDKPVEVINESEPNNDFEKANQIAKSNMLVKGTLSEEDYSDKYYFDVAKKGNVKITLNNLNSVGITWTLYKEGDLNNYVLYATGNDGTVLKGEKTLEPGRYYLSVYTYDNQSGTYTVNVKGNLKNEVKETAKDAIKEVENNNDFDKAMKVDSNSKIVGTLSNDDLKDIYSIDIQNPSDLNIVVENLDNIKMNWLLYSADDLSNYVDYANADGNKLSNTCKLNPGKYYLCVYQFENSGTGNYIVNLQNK

Coagulation factor X = Coagulation factor X (Homo sapiens, UniProt P00742); test: Inhibition of Coagulation factor X at 100 uM; No inhibition
Coagulation factor X, sequence (P00742 41-179 limits assumed): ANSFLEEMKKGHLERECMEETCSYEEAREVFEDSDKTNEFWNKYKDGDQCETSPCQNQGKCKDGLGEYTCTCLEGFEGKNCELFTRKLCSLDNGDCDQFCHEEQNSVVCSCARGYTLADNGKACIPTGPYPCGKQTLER
Coagulation factor X, sequence (P00742 235-488 limits assumed): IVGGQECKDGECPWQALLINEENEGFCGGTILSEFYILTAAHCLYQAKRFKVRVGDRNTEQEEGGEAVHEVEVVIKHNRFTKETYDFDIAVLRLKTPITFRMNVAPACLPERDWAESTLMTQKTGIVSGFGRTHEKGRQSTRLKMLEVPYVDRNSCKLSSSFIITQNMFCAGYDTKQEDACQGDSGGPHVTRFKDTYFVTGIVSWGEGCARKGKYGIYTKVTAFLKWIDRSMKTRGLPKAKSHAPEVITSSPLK

HT-1080 [1] = test: Compound (100 uM) was tested for percent inhibition against adhesion of human HT1080 cells; No inhibition; type: functional, cell-based
HeLa [2] = test: Compound (100 uM) was tested for percent inhibition against adhesion of human HeLa cells; No inhibition; type: functional, cell-based
Heparanase [3] = molecular target: T2, Heparanase (Homo sapiens, UniProt Q9Y251); test: Inhibitory concentration against heparanase; No inhibition
T2 sequence (Q9Y251 whole entry): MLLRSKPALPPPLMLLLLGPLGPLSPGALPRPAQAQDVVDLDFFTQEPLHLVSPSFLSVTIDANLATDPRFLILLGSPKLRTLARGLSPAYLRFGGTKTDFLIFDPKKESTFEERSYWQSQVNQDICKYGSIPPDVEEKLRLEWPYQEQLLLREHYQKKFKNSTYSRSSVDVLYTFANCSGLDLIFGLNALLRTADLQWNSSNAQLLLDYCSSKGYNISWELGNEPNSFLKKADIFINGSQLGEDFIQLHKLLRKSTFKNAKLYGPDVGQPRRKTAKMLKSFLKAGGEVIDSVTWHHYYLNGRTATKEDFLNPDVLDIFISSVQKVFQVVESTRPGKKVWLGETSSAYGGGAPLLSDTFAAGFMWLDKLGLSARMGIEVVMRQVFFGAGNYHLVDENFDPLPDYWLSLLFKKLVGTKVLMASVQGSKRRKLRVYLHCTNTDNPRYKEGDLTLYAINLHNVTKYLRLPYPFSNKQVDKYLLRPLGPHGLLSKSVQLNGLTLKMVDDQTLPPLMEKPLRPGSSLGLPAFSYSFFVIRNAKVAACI

[4] = molecular target: Matrix metalloproteinase-9 (Homo sapiens, UniProt P14780); test: Inhibition of matrix metalloprotease-9 at 100 uM (inactive)
Matrix metalloproteinase-9, sequence (P14780 whole entry): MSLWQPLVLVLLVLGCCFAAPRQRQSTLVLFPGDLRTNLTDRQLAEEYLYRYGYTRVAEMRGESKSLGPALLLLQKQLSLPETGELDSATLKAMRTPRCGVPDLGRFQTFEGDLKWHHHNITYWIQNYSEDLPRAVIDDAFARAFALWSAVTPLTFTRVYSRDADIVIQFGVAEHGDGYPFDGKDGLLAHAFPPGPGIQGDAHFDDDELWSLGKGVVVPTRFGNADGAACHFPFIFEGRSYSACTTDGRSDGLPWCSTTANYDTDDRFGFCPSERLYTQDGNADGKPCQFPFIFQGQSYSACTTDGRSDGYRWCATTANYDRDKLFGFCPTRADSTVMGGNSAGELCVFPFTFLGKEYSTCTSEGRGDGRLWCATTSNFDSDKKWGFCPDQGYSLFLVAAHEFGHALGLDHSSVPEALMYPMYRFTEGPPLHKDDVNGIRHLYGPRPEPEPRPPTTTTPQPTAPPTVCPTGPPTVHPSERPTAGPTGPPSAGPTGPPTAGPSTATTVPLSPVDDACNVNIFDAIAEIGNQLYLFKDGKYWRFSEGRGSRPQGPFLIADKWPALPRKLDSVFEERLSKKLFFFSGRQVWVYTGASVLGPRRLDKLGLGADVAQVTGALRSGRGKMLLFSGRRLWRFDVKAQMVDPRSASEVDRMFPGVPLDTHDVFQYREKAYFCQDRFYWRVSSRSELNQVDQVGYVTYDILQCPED

Serine protease 1 = Serine protease 1 (Homo sapiens, UniProt P07477); test: Inhibitory activity against trypsin at 100 uM; No inhibition
Serine protease 1, sequence (P07477 whole entry): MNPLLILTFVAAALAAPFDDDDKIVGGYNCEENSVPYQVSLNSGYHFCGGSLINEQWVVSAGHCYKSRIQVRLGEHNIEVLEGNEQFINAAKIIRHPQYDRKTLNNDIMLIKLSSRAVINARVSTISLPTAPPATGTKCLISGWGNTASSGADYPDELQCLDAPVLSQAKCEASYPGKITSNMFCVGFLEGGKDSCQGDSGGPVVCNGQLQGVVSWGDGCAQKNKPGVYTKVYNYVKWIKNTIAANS

[5] = molecular target: 72 kDa type IV collagenase (Homo sapiens, UniProt P08253); test: Inhibition of matrix metalloprotease-2 at 100 uM (inactive)
72 kDa type IV collagenase, sequence (P08253 whole entry): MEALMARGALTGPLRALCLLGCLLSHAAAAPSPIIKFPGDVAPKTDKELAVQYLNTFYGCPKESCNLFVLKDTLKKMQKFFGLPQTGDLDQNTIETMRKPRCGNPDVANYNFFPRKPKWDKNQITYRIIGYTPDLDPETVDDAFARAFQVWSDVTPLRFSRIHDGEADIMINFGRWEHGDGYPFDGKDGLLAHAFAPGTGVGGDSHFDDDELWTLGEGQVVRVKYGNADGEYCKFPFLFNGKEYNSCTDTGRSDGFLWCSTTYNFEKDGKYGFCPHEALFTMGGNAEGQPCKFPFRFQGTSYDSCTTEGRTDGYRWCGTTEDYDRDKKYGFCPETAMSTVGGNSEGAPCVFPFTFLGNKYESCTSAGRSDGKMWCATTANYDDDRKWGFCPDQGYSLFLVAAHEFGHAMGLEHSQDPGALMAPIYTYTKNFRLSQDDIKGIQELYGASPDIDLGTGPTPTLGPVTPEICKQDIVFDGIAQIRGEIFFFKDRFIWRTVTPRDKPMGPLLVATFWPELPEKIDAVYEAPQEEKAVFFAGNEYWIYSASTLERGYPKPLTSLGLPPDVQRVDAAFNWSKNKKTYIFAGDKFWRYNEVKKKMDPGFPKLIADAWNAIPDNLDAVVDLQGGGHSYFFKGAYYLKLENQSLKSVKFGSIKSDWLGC

Prothrombin = Prothrombin (Homo sapiens, UniProt P00734); test: Compound (100 uM) was tested for inhibitory activity against thrombin; No inhibition
HT-1080 [6] = test: Compound was tested for inhibitory activity against adhesion of human collagen IV/HT1080 cell; type: functional, cell-based
Integrin alpha-5/beta-1 [7] = molecular target: T3, Integrin alpha-5/beta-1 (Homo sapiens, UniProt P05556+P08648); test: Inhibition of human A431 cell adhesion to fibronectin; type: functional, cell-based, A-431
T3 sequence (P05556 21-798 limits assumed): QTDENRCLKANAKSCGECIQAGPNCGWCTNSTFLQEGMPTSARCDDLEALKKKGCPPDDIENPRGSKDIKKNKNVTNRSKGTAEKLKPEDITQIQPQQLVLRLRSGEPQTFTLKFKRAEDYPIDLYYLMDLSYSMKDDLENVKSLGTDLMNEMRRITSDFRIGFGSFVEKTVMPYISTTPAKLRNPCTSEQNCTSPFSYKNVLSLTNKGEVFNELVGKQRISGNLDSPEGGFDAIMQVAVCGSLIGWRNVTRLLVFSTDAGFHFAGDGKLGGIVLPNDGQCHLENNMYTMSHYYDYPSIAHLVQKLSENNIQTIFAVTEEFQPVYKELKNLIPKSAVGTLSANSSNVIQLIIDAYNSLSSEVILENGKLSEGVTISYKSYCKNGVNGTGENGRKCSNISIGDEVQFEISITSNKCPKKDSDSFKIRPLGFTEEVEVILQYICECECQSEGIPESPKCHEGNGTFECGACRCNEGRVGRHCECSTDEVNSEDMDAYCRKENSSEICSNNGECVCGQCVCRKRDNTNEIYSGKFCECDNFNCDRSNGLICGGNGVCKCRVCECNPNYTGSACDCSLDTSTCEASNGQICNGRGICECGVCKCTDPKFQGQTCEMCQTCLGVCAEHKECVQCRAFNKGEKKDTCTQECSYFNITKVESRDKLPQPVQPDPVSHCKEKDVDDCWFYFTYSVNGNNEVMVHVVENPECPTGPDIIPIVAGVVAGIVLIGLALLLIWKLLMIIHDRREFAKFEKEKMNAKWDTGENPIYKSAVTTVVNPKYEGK
T3 sequence (P08648 42-894 limits assumed): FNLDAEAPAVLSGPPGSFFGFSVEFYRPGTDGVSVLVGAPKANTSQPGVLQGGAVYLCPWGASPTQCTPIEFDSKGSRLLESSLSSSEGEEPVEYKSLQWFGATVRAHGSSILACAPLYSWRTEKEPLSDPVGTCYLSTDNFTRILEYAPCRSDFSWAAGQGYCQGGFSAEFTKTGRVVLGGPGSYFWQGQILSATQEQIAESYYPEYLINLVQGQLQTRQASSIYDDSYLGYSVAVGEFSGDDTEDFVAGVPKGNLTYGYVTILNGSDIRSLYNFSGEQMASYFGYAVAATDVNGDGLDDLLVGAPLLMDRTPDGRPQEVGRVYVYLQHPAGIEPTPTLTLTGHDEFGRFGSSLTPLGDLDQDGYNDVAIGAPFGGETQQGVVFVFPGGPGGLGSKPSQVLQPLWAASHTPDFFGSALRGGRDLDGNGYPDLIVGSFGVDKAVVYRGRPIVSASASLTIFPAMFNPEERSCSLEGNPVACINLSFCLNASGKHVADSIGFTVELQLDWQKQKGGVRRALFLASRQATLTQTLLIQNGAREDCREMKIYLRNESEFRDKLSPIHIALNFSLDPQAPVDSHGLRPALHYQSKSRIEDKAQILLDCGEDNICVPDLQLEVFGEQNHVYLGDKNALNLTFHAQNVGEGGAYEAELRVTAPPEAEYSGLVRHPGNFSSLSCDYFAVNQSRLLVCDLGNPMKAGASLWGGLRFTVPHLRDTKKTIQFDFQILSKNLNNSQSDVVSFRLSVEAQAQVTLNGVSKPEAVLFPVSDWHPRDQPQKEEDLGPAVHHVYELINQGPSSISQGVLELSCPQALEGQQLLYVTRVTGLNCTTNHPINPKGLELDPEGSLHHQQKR
T3 sequence (P08648 895-1049 limits assumed): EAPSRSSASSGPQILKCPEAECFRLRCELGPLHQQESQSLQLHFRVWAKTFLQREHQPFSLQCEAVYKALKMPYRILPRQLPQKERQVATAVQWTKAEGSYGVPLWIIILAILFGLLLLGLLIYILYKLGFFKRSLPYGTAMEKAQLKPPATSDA

Integrin alpha-5/beta-1 [8] = molecular target: T3, Integrin alpha-5/beta-1; test: Inhibition of human HT1080 cell adhesion to fibronectin; type: functional, cell-based, HT-1080
Integrin alpha-5/beta-1 [9] = molecular target: T3, Integrin alpha-5/beta-1; test: Inhibition of human HeLa cell adhesion to fibronectin; type: functional, cell-based
HT-1080 [10] = test: Compound (100 uM) was tested for percent inhibition against adhesion of human HT1080 cells; type: functional
HT-1080 [11] = test: Compound was tested for inhibitory activity against growth of human HT1080 cells; type: functional, cell-based
HT-1080 [12] = test: Compound was tested for inhibitory activity against invasion of human HT1080 cells; type: functional, cell-based
HT-1080 [13] = test: Compound was tested for inhibitory activity against migration of human HT1080 cells; type: functional, cell-based
HeLa [14] = test: Compound (100 uM) was tested for percent inhibition against adhesion of human HeLa cells; type: functional
HT-1080 [15] = test: Compound was tested for inhibitory activity against adhesion of human laminin/HT1080 cells; type: functional, cell-based
HT-1080 [16] = test: Compound was tested for inhibitory activity against adhesion of human Plastic/HT1080 cells; type: functional, cell-based
Heparanase [17] = molecular target: T2, Heparanase; test: Compound was tested for inhibitory activity against heparanase

SMILES | IC50 (Collagenase ColA) | IC50 (Coagulation factor X) | IC50 (HT-1080 [1]) | IC50 (HeLa [2]) | IC50 (Heparanase [3]) | IC50 [4] | IC50 (Serine protease 1) | IC50 [5] | IC50 (Prothrombin) | other results
CCOc1ccc(C(=O)c2ccccc2C(=O)O)cc1[N+](=O)[O-] | Not Active | Not Active | Not Active | Not Active | Not Active | Not Active | Not Active | Not Active | Not Active | 
CCNc1ccc(C(=O)c2ccccc2C(=O)O)cc1[N+](=O)[O-] | Not Active | Not Active | Not Active | Not Active | Not Active | Not Active | Not Active | Not Active | Not Active | 
O=C(O)c1ccccc1C(=O)c1ccc(F)c([N+](=O)[O-])c1 | Not Active | Not Active | Not Active | Not Active | Not Active | Not Active | Not Active | Not Active | Not Active | 
O=C(O)c1ccccc1C(=O)c1ccc(Oc2ccccc2)c([N+](=O)[O-])c1 | Not Active | Not Active | Not Active | Not Active | Not Active | Not Active | Not Active | Not Active | Not Active | 
CC(=O)OC(=O)c1ccccc1C(=O)c1ccc(F)c([N+](=O)[O-])c1 | Not Active | Not Active |  |  | Not Active | Not Active | Not Active | Not Active | Not Active | IC50 (HT-1080 [6]): 43 µM; IC50 (Integrin alpha-5/beta-1 [7]): 8 µM; IC50 (Integrin alpha-5/beta-1 [8]): 7 µM; IC50 (Integrin alpha-5/beta-1 [9]): 16 µM; Inhibition (HT-1080 [10]): 89%; IC50 (HT-1080 [11]): 10 µM; IC50 (HT-1080 [12]): 2 µM; IC50 (HT-1080 [13]): 2 µM; Inhibition (HeLa [14]): 85%; IC50 (HT-1080 [15]): 17 µM; IC50 (HT-1080 [16]): 5 µM
O=C(O)CC(Sc1ccc(C(=O)c2ccccc2C(=O)O)cc1[N+](=O)[O-])C(=O)O (stereo not drawn) | Not Active | Not Active | Not Active | Not Active | Not Active | Not Active | Not Active | Not Active | Not Active | 
CCSc1ccc(C(=O)c2ccccc2C(=O)O)cc1[N+](=O)[O-] | Not Active | Not Active | Not Active | Not Active | Not Active | Not Active | Not Active | Not Active | Not Active | 
O=C(O)c1ccccc1C(=O)c1ccc(Sc2ccccc2)c([N+](=O)[O-])c1 | Not Active | Not Active | Not Active | Not Active | Not Active | Not Active | Not Active | Not Active | Not Active | IC50 (Heparanase [17]): 300 µM
CC(=O)OC(=O)c1ccccc1C(=O)c1ccc(Sc2ccccc2)c([N+](=O)[O-])c1 | Not Active | Not Active | Not Active | Not Active | Not Active | Not Active | Not Active | Not Active | Not Active | 
O=C(O)c1ccccc1C(=O)c1ccc(F)cc1 | Not Active | Not Active | Not Active | Not Active | Not Active | Not Active | Not Active | Not Active | Not Active | 
O=C(O)c1ccccc1C(=O)c1ccc(NC2CCCCC2)c([N+](=O)[O-])c1 | Not Active | Not Active | Not Active | Not Active | Not Active | Not Active | Not Active | Not Active | Not Active | 
O=C(O)c1ccc(Sc2ccc(C(=O)c3ccccc3C(=O)O)cc2[N+](=O)[O-])cc1 | Not Active | Not Active | Not Active | Not Active | Not Active | Not Active | Not Active | Not Active | Not Active | 
